Source: paper PMC13469122, “Structural and mechanistic insights into primer synthesis initiation by DNA primase” (Nature Communications, 2026)

Experiments:
[1] = molecular target: T1, primase (pRN1 primase, residues 40-370) (Saccharolobus islandicus, UniProt Q54324); assay: solid-state hPH NMR; type: binding; conditions: with DNA^CT; triphosphate at NTP^S site
T1 construct: Catalytic domain, linker and helix bundle domain, residues 40-370; C-terminal His6 without cleavage site; E. coli BL21(DE3) CodonPlus, pET28c

[2] = molecular target: T2, HBD (helix bundle domain) of pRN1 primase (Saccharolobus islandicus, UniProt Q54324); assay: solution NMR; type: binding
T2 construct: Helix bundle domain 261-370 plus linker 256-260; residual GHM (253-255) after TEV cleavage of N-terminal His6; E. coli BL21(DE3) CodonPlus, pET28c

[3] = molecular target: T3, primase (pRN1 primase, residues 40-370) (Saccharolobus islandicus, UniProt Q54324, H145A); assay: solid-state hPH NMR (also NHHP, CHHP); type: binding; conditions: with DNA^CT and ATP^N, 309 K; NTP^S site
T3 construct: Catalytic domain, linker and helix bundle domain, residues 40-370; C-terminal His6 without cleavage site; E. coli BL21(DE3) CodonPlus, pET28c

[4] = molecular target: T4, pRN1 primase H145A (Sulfolobus islandicus plasmid pRN1, UniProt Q54324 40-370, H145A); assay: NMR (solid-state hPH, NHHP, CHHP); ATPN + dGTPC; 25 mM sodium phosphate, 50 mM NaCl, 10 mM MgCl2, pH 7.0; ITC and HBD NMR 298 K, primase NMR 313 K; conditions: protein: recombinant; tags: C-terminal His6, not cleaved; single strand
T4 sequence: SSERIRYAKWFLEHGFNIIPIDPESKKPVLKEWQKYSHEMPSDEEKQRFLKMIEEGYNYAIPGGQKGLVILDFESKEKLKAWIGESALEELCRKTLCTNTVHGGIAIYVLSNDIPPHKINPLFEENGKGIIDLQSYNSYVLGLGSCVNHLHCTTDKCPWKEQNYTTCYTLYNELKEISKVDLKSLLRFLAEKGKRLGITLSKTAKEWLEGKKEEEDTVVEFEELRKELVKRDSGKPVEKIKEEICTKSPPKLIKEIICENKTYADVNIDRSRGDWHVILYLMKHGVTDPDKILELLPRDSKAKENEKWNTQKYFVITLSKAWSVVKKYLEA

[5] = molecular target: T5, pRN1 primase helix bundle domain (HBD) (Sulfolobus islandicus plasmid pRN1, UniProt Q54324 256-370); assay: ITC; 1 mM dGTP, 10 mM Mg2+; Kd not printed in the material; 25 mM sodium phosphate, 50 mM NaCl, 10 mM MgCl2, pH 7.0; ITC and HBD NMR 298 K, primase NMR 313 K; conditions: protein: recombinant; tags: non-native GHM (numbered 253-255) left after TEV cleavage of N-terminal His6; single strand
T5 sequence: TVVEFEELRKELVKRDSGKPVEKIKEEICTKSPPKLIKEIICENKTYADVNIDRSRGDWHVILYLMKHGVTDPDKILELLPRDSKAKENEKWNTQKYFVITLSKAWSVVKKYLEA

T1 sequence (Q54324 entry or part of it): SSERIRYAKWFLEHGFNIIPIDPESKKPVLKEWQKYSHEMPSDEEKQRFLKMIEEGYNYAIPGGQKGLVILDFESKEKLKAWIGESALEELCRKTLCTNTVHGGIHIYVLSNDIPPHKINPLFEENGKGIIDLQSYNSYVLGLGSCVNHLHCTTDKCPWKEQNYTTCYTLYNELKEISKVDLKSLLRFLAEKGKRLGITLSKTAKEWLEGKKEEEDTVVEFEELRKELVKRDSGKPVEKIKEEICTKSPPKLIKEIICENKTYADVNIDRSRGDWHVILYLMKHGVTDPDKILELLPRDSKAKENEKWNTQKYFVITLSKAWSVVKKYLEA

Nc1nc2c(ncn2[C@H]2C[C@H](O)[C@@H](COP(=O)(O)O[C@H]3[C@@H](O)[C@H](n4cnc5c(N)ncnc54)O[C@@H]3COP(=O)(O)OP(=O)(O)NP(=O)(O)O)O2)c(=O)[nH]1
solid-state hPH NMR [1]: the solid-state hPH NMR spectrum of the primase-DNA^CT-pNHppApG complex

Nc1ncnc2c1ncn2[C@@H]1O[C@H](COP(=O)(O)OP(=O)(O)OP(=O)(O)O)[C@@H](O)[C@H]1O [ATP]
solution NMR ([2]; with DNA^CT and dGTP, NTP^W site (displaced from NTP^S site by dGTP)): the second ATP remains bound at the NTP^W site without base-pairing with T2

Nc1nc2c(ncn2[C@H]2C[C@H](O)[C@@H](COP(=O)(O)OP(=O)(O)OP(=O)(O)O)O2)c(=O)[nH]1 [dGTP]
solution NMR ([2]; with DNA^CT and ATP, NTP^S site): dGTP displaces ATP at the NTP^S site to base-pair with C1

Nc1nc2c(ncn2[C@H]2C[C@H](O)[C@@H](COP(=O)(O)OP(=O)(O)CP(=O)(O)O)O2)c(=O)[nH]1 [dGTP^C]
solid-state hPH NMR (also NHHP, CHHP) [3]: ATP^N binds at the NTP^W site, while dGTP^C occupies the NTP^S site

CTGTGCTCA (ssDNA) [DNACT]
binding result [4]: binds
binding signal [5]: ~5 fold tighter GTG recognition than with ATP
